The values below come from paper PMC6351562, “Structure, function, and inhibition of drug reactivating human gut microbial β-glucuronidases” (Scientific Reports, 2019).

What is called IC50 is the point on the concentration scale where inhibition reaches its midpoint. The inhibition is the relative decrease from the control value, in per cent.

Where two headings read alike, the source gives them in different places.

The target of experiment [1] is T1, Ruminococcus gnavus GUS (RgGUS) (Mediterraneibacter gnavus, UniProt A0A2N5PVZ8).
T1 sequence (A0A2N5PVZ8 1-603): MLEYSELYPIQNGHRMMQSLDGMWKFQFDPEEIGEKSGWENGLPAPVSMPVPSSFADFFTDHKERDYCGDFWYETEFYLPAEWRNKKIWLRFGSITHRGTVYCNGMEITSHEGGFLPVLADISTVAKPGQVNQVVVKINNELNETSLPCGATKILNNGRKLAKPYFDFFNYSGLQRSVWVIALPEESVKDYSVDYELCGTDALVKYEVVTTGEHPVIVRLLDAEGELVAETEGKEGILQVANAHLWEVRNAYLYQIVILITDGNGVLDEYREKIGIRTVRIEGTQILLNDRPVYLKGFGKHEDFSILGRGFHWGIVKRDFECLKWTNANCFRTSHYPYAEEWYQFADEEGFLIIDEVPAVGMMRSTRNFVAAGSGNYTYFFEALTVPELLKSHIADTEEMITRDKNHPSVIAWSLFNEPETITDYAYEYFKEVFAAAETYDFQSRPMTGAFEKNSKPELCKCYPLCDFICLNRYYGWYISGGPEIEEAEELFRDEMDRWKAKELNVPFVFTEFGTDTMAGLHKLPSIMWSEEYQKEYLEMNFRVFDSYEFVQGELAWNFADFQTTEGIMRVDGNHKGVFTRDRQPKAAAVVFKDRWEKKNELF
The experiment is described as follows: In vitro inhibition assay (pNPG hydrolysis). The format is biochemical.

Experiment [2] deals with T2, Eubacterium eligens GUS (EeGUS) (Lachnospira eligens, UniProt C4Z6Z2).
T2 sequence (C4Z6Z2 1-611): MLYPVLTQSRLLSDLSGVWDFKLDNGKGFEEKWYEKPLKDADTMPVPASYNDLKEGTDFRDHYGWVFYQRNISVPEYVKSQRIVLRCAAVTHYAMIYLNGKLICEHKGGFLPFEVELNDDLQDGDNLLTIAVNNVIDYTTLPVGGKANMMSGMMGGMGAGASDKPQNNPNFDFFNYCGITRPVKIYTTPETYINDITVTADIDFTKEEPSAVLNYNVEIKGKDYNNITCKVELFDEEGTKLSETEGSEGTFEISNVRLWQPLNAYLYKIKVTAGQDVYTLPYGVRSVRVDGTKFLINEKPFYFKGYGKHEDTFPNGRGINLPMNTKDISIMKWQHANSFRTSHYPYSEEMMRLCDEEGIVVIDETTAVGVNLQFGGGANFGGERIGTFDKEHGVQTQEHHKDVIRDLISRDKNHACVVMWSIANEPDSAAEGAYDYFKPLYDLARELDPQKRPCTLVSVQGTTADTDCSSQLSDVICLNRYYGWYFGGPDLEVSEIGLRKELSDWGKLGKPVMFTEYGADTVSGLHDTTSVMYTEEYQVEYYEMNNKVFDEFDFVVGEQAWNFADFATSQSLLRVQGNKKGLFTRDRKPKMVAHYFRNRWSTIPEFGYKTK
The experiment is described as follows: In vitro inhibition assay (pNPG hydrolysis). The format is biochemical. The conditions noted are these: pNPG 900 µM.

Experiment [3] concerns the target Bacteroides fragilis GUS (BfGUS) (Bacteroides fragilis, UniProt Q5LIC7). More on the design: method as in PMID 21051639, PMID 26364932, PMID 30062115. The following applies: earlier work; cited from earlier work.
Experiment [4] deals with T3, Faecalibacterium prausnitzii GUS (FpGUS) (Faecalibacterium duncaniae, UniProt C7H4D2).
T3 sequence (C7H4D2 1-608): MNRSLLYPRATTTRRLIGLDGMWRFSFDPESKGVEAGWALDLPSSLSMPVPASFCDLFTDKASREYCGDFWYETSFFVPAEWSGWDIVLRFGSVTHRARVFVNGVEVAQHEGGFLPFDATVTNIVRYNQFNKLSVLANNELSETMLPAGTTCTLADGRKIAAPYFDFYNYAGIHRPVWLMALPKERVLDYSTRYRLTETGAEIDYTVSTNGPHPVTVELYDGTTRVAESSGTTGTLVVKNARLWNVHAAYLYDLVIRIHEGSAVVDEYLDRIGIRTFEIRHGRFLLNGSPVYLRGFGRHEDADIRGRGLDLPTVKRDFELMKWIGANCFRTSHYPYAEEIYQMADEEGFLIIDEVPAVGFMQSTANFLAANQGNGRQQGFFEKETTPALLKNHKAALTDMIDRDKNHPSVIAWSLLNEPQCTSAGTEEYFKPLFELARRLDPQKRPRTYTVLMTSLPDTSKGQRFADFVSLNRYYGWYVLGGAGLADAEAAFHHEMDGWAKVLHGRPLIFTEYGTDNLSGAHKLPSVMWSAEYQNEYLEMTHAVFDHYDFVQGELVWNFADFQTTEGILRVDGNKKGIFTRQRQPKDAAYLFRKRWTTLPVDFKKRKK
The experiment in a line: In vitro inhibition assay (pNPG hydrolysis). It is filed as biochemical. The conditions noted are these: for IC50: pNPG 900 µM.

The target of another experiment is E. coli GUS (EcGUS) (Escherichia coli, UniProt P05804). The experiment is described as follows: In vitro inhibition assay (pNPG hydrolysis). The format is biochemical. The following applies: for IC50: pNPG 900 µM, 1 hour end point.
Sequence of E. coli GUS (EcGUS) (P05804 whole entry): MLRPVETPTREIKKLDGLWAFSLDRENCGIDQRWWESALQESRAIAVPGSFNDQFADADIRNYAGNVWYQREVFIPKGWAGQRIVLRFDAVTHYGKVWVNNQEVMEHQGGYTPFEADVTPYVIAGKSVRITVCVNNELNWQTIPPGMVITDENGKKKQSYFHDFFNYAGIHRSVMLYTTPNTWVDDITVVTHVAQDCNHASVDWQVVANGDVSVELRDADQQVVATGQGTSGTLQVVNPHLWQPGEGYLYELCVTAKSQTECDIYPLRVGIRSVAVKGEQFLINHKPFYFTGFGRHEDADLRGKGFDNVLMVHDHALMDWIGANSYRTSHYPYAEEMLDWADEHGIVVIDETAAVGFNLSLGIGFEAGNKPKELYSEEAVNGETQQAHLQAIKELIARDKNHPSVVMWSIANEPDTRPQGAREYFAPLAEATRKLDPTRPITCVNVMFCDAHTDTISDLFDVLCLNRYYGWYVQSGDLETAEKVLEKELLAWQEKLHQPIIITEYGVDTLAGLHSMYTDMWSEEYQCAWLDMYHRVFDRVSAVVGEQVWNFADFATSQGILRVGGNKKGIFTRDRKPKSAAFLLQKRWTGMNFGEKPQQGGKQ
A further experiment deals with EcGUS F365A. The format is biochemical, E. coli. The following applies: IC50 curves, Fig. S14.
The mark [5] stands for this setting: pH 7.5, 1 hour end point, read-out: UNC10201652 (IC50, nM) pH 7.5.
The mark [6] stands for this setting: pH 6.5, read-out: UNC10201652 (IC50, nM) pH 6.5.
The mark [7] stands for this setting: Inhibitor 1 (IC50, nM) pH 6.5, pH 6.5.
Setting [8] is: Inhibitor 1 (IC50, nM) pH 7.5, pH 7.5.

Sequence of Bacteroides fragilis GUS (BfGUS) (Q5LIC7 whole entry): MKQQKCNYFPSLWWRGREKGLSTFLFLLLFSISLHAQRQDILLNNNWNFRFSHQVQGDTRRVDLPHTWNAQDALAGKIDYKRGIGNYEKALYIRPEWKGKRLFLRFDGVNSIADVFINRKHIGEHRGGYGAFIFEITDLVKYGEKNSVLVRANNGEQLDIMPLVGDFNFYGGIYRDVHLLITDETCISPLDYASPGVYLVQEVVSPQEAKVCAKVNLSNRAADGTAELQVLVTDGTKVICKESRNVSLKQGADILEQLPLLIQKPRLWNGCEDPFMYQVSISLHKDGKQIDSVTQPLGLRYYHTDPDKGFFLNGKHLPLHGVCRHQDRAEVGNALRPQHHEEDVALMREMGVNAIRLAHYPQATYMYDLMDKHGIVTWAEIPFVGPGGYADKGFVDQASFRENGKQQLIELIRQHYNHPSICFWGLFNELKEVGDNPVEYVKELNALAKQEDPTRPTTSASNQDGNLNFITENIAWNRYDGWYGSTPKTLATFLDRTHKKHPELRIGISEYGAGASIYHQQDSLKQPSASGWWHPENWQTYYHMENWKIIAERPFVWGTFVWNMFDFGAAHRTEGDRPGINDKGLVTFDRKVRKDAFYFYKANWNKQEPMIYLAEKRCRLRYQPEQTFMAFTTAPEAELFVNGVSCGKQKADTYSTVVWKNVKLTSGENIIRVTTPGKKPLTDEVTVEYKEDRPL

Consider `C1CCc2c(c(N3CCOCC3)nc3sc4c(N5CCNCC5)nnnc4c23)C1` [UNC10201652], for which the IC50 in experiment [1] (pH 7.5, pNPG 900 µM, read-out: UNC10201652 (IC50, nM) pH 7.5) was more than 100000 nM; in experiment [1] (read-out: UNC10201652 (IC50, nM) pH 6.5) it was more than 100000 nM; in experiment [2] (pH 6.5, 1 hour end point, read-out: UNC10201652 (IC50, nM) pH 6.5), 1900 ± 100 nM; in experiment [2] (setting [5]), 410 ± 30 nM; in experiment [4] (setting [6]), more than 100000 nM; in experiment [4] (setting [5]), more than 3000 nM. For the same compound, the IC50 is 310 ± 20 nM at E. coli GUS (EcGUS) (setting [6]) and 100 ± 8 nM at E. coli GUS (EcGUS) (pH 7.5, read-out: UNC10201652 (IC50, nM) pH 7.5). Also, the “inhibition of BfGUS (in words)” value in experiment [3] is reported as “did not inhibit”. Moreover, the inhibition at 100 µM in experiment [4] (100 µM, pH 6.5, read-out: inhibition at 100 µM UNC10201652) was less than 80%. On E. coli GUS (EcGUS) (UNC10201652, IC50 pH 6.5 vs pH 7.5), the “decrease in potency from pH 7.5 to pH 6.5” value is 3 fold. Besides, the “potency relative to Inhibitor 1” value at E. coli GUS (EcGUS) (pH 7.5, times more potent than Inhibitor 1) worked out at 19 times. Moreover, the “potency toward EcGUS F365 mutant compared with WT” value in the experiment on EcGUS F365A is reported as “less potent”.

In the case of `CCOc1ccc(NC(=S)N(CCO)Cc2cc3cc(C)cc(C)c3[nH]c2=O)cc1` [Inhibitor 1], the half-maximal inhibitory concentration (IC50) in experiment [1] is more than 100000 nM; in experiment [1] (read-out: Inhibitor 1 (IC50, nM) pH 7.5, pH 7.5, pNPG 900 µM) it was more than 100000 nM; in experiment [2] (setting [7]), more than 100000 nM; in experiment [2] (setting [8]), more than 100000 nM; in experiment [4] (setting [7]), more than 100000 nM; in experiment [4] (setting [8]), more than 100000 nM. Moreover, the “inhibition of BfGUS (in words)” value in experiment [3] is “did not inhibit”. Moreover, the inhibition at 100 µM on E. coli GUS (EcGUS) (read-out: inhibition at 100 µM Inhibitor 1, 100 µM, pH 6.5 and 7.5) was not below 80%. Besides, the “potency toward EcGUS F365 mutant compared with WT” value with EcGUS F365A is given as “less potent”.
